Measurements as given in patent US20090291942A1, “IMIDAZO PYRIDINE DERIVATIVES” (priority 2008, published 2009).
Where a name gives a salt, the structure may show the parent alone.

The compounds below were run against T1, human GPR4 (Homo sapiens, UniProt P46093) (assay: Cell-based assay for human GPR4 activity (pH-induced cAMP formation, HTRF)). Conditions: HeLa cells stably expressing human GPR4, pH-induced cAMP formation.
T1 construct: expressed in transfected cells
Description: a) Cell-Based Assay for Human GPR4 Activity
HeLa cells stably expressing human GPR4 were established by transfecting the cells with a construct containing the human GPR4 coding sequence. The cells were grown in DMEM/HAM's F12 medium supplemented with 10% fetal calf serum (FCS), 100 u/ml penicillin, 100 μg/ml streptomycin and 400 μg/ml G418 and 10 mM Hepes pH 8.0. pH-induced formation of cAMP was determined using the HTRF technology as provided by CisBio Inc. The cells were seeded in 384-well plates and cultured for 24 hours at 37° C., 5% CO2 before performing the assay. Medium was removed and 10 μl buffer A (HBS, 10 mM Hepes, pH 8, 2 mM IBMX) was added. For compound testing, buffer A with 2× concentrated compounds was used. Cells were incubated for 15 min at room temperature. 10 μl buffer B (HBS, 30 mM Hepes, specific pH) was added to reach the appropriate final pH for stimulation (see below) and incubation was continued for 15 min at room temperature. […] HBS: 130 mM NaCl, 0.9 mM NaH2PO4, 5.4 mM KCl, 0.8 mM MgSO4, CaCl2 1.8 mM, 25 mM glucose, 10-30 mM Hepes. Adjustment of HBS buffers: Bf A Bf B Final stimulation pH (1 volume buffer A+1 volume buffer B)
Compounds were diluted from fresh stock solutions at 10 mM in DMSO to 2 mM and then used for serial dilutions in DMSO.

T1 sequence (P46093 whole entry): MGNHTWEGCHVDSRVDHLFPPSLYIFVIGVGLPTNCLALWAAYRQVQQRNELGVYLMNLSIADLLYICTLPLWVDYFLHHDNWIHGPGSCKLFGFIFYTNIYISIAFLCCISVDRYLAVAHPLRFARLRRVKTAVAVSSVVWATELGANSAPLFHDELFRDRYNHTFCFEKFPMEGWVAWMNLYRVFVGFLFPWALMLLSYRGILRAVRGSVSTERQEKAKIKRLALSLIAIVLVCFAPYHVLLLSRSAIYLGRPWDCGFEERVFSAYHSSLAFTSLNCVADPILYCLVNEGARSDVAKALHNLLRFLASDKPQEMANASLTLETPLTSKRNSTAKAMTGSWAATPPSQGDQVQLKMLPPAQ

SMILES	IC50 [nM]
CCc1nc2c(C)cc(C)nc2n1Cc1ccc(CCCN2CCN(C)C[C@@H]2C(C)C)cc1 [Example 24, 2-Ethyl-3-{4-[3-((S)-2-isopropyl-4-methyl-piperazin-1-yl)-propyl]-benzyl}-5,7-dimethyl-3H-imidazo[4,5-b]pyridine dihydrochloride]	961
CCc1nc2c(C)cc(C)nc2n1Cc1ccc(CCCN2CCN(C(CC)CC)CC2)cc1 [Example 15, 2-Ethyl-3-(4-{3-[4-(1-ethyl-propyl)-piperazin-1-yl]-propyl}-benzyl)-5,7-dimethyl-3H-imidazo[4,5-b]pyridine]	50
CCc1nc2c(C)cc(C)nc2n1Cc1ccc(/C=C/CN2CCNCC2)cc1 [Example 42, 2-Ethyl-5,7-dimethyl-3-[4-((E)-3-piperazin-1-yl-propenyl)-benzyl]-3H-imidazo[4,5-b]pyridine]	162
CCc1nc2c(C)cc(C)nc2n1Cc1ccc(/C=C/CN2CCN(CCOC)CC2)cc1 [Example 62, 2-Ethyl-3-(4-{(E)-3-[4-(2-methoxy-ethyl)-piperazin-1-yl]-propenyl}-benzyl)-5,7-dimethyl-3H-imidazo[4,5-b]pyridine dihydrochloride]	552
CCc1nc2c(C)cc(C)nc2n1Cc1ccc(/C=C/CN2CCN(C(C)CC)CC2)cc1 (stereo not drawn) [Example 49, 3-{4-[(E)-3-(4-sec-Butyl-piperazin-1-yl)-propenyl]-benzyl}-2-ethyl-5,7-dimethyl-3H-imidazo[4,5-b]pyridine]	100
Cc1cc(C)c2nc(C(F)(F)F)n(Cc3ccc(/C=C/CN4CCN(C(C)C)CC4)cc3)c2n1 [Example 91, 3-{4-[(E)-3-(4-Isopropyl-piperazin-1-yl)-propenyl]-benzyl}-5,7-dimethyl-2-trifluoromethyl-3H-imidazo[4,5-b]pyridine dihydrochloride]	140
CCc1nc2c(C)cc(C)nc2n1Cc1ccc(NC(=O)CCCCN2CCCCC2)cc1 [Example 102, 5-Piperidin-1-yl-pentanoic acid [4-(2-ethyl-5,7-dimethyl-imidazo[4,5-b]pyridin-3-ylmethyl)-phenyl]-amide]	241
CCc1nc2c(C)cc(C)nc2n1Cc1ccc(/C=C/CN2CCC(OC)CC2)cc1 [Example 37, 2-Ethyl-3-{4-[(E)-3-(4-methoxy-piperidin-1-yl)-propenyl]-benzyl}-5,7-dimethyl-3H-imidazo[4,5-b]pyridine]	419
CCCN1CCN(CCCc2ccc(Cn3c(CC)nc4c(C)cc(C)nc43)cc2)CC1 [Example 7, 2-Ethyl-5,7-dimethyl-3-{4-[3-(4-propyl-piperazin-1-yl)-propyl]-benzyl}-3H-imidazo[4,5-b]pyridine]	39
CCc1nc2c(C)cc(C)nc2n1Cc1ccc(C#CCN2CCC(N3CCCCC3)CC2)cc1 [Example 2, 1′-{3-[4-(2-Ethyl-5,7-dimethyl-imidazo[4,5-b]pyridin-3-ylmethyl)-phenyl]-prop-2-ynyl}-[1,4′]bipiperidine]	73
CCc1nc2c(C)cc(C)nc2n1Cc1ccc(/C=C/CN2CCN(C)CC2)cc1 [Example 43, 2-Ethyl-5,7-dimethyl-3-{4-[(E)-3-(4-methyl-piperazin-1-yl)-propenyl]-benzyl}-3H-imidazo[4,5-b]pyridine]	139
CCc1nc2c(C)cc(C)nc2n1Cc1ccc(/C=C/CN2CCN(C3CC3)CC2)cc1 [Example 47, 3-{4-[(E)-3-(4-Cyclopropyl-piperazin-1-yl)-propenyl]-benzyl}-2-ethyl-5,7-dimethyl-3H-imidazo[4,5-b]pyridine dihydrochloride]	410
CCc1nc2c(C)cc(C)nc2n1Cc1ccc(NC(=O)CCCCN2CCCC2)cc1 [Example 101, 5-Pyrrolidin-1-yl-pentanoic acid [4-(2-ethyl-5,7-dimethyl-imidazo[4,5-b]pyridin-3-ylmethyl)-phenyl]-amide]	364
CCc1nc2c(C)cc(C)nc2n1Cc1ccc(CCCN2CCN(CCN(C)C)CC2)cc1 [Example 21, [2-(4-{3-[4-(2-Ethyl-5,7-dimethyl-imidazo[4,5-b]pyridin-3-ylmethyl)-phenyl]-propyl}-piperazin-1-yl)-ethyl]-dimethyl-amine dihydrochloride]	345
CCc1nc2c(C)cc(C)nc2n1Cc1ccc(/C=C/CN2CCN(C3CCCCC3)CC2)cc1 [Example 57, 3-{4-[(E)-3-(4-Cyclohexyl-piperazin-1-yl)-propenyl]-benzyl}-2-ethyl-5,7-dimethyl-3H-imidazo[4,5-b]pyridine dihydrochloride]	121
CCc1nc2c(C)cc(C)nc2n1Cc1ccc(/C=C/CN2CCN(C)C[C@@H]2C(C)C)cc1 [Example 70, 2-Ethyl-3-{4-[(E)-3-((S)-2-isopropyl-4-methyl-piperazin-1-yl)-propenyl]-benzyl}-5,7-dimethyl-3H-imidazo[4,5-b]pyridine dihydrochloride]	496
CCc1nc2c(C)cc(C)nc2n1Cc1ccc(/C=C/CN2CCN(Cc3ccc(OC)c(OC)c3)CC2)cc1 [Example 67, 3-(4-{(E)-3-[4-(3,4-Dimethoxy-benzyl)-piperazin-1-yl]-propenyl}-benzyl)-2-ethyl-5,7-dimethyl-3H-imidazo[4,5-b]pyridine trihydrochloride]	407
CCOCCN1CCN(C/C=C/c2ccc(Cn3c(CC)nc4c(C)cc(C)nc43)cc2)CC1 [Example 63, 3-(4-{(E)-3-[4-(2-Ethoxy-ethyl)-piperazin-1-yl]-propenyl}-benzyl)-2-ethyl-5,7-dimethyl-3H-imidazo[4,5-b]pyridine]	829
CCc1nc2c(C)cc(C)nc2n1Cc1ccc(/C=C(\F)CN2CCC(N3CCCCC3)CC2)cc1 [Example 93, 1′-{(Z)-3-[4-(2-Ethyl-5,7-dimethyl-imidazo[4,5-b]pyridin-3-ylmethyl)-phenyl]-2-fluoro-allyl}-[1,4′]bipiperidinyl dihydrochloride]	29
CCc1nc2c(C)cc(C)nc2n1Cc1ccc(/C=C/CCn2ccnc2)cc1 [Example 109]	370
CCc1nc2c(C)cc(C)nc2n1Cc1ccc(/C=C/CN2CCN(CCN(C(C)C)C(C)C)CC2)cc1 [Example 61, [2-(4-{(E)-3-[4-(2-Ethyl-5,7-dimethyl-imidazo[4,5-b]pyridin-3-ylmethyl)-phenyl]-allyl}-piperazin-1-yl)-ethyl]-diisopropyl-amine trihydrochloride]	499
CCc1nc2c(C)cc(C)nc2n1Cc1ccc(/C=C/CN2CCN(CCN3CCOCC3)CC2)cc1 [Example 66, 2-Ethyl-5,7-dimethyl-3-(4-{(E)-3-[4-(2-morpholin-4-yl-ethyl)-piperazin-1-yl]-propenyl}-benzyl)-3H-imidazo[4,5-b]pyridine trihydrochloride]	222
CCc1nc2c(C)cc(C)nc2n1Cc1ccc(/C=C(\F)CN2CCN(C(C)(C)C)CC2)cc1 [Example 95, 3-{4-[(Z)-3-(4-tert-Butyl-piperazin-1-yl)-2-fluoro-propenyl]-benzyl}-2-ethyl-5,7-dimethyl-3H-imidazo[4,5-b]pyridine dihydrochloride]	31
Cc1cc(C)c2nc(C3CC3)n(Cc3ccc(/C=C/CN4CCN(C(C)C)CC4)cc3)c2n1 [Example 84, 2-Cyclopropyl-3-{4-[(E)-3-(4-isopropyl-piperazin-1-yl)-propenyl]-benzyl}-5,7-dimethyl-3H-imidazo[4,5-b]pyridine dihydrochloride]	181
CCCCN1CCN(CCCc2ccc(Cn3c(CC)nc4c(C)cc(C)nc43)cc2)CC1 [Example 10, 3-{4-[3-(4-Butyl-piperazin-1-yl)-propyl]-benzyl}-2-ethyl-5,7-dimethyl-3H-imidazo[4,5-b]pyridine]	123
CCc1nc2c(C)cc(C)nc2n1Cc1ccc(/C=C/CN2CCC(N(CC)CC)CC2)cc1 [Example 31, Diethyl-(1-{(E)-3-[4-(2-ethyl-5,7-dimethyl-imidazo[4,5-b]pyridin-3-ylmethyl)-phenyl]-allyl}-piperidin-4-yl)-amine dihydrochloride]	144
Cc1cc(C)c2nc(C(C)C)n(Cc3ccc(/C=C/CN4CCC(N5CCCCC5)CC4)cc3)c2n1 [Example 83, 1′-{(E)-3-[4-(2-Isopropyl-5,7-dimethyl-imidazo[4,5-b]pyridin-3-ylmethyl)-phenyl]-allyl}-[1,4′]bipiperidinyl dihydrochloride]	294
CCc1nc2c(C)cc(C)nc2n1Cc1ccc(CCCN2CCN(C(C)CC)CC2)cc1 (stereo not drawn) [Example 11, 3-{4-[3-(4-sec-Butyl-piperazin-1-yl)-propyl]-benzyl}-2-ethyl-5,7-dimethyl-3H-imidazo[4,5-b]pyridine]	479
CCc1nc2c(C)cc(C)nc2n1Cc1ccc(CCCN2CCN(CC)C(C)C2)cc1 (stereo not drawn) [Example 22, 2-Ethyl-3-{4-[3-(4-ethyl-3-methyl-piperazin-1-yl)-propyl]-benzyl}-5,7-dimethyl-3H-imidazo[4,5-b]pyridine dihydrochloride]	223
CCc1nc2c(C)cc(C)nc2n1Cc1ccc(/C=C/CN2CCN(CC)CC2)cc1 [Example 44, 2-Ethyl-3-{4-[(E)-3-(4-ethyl-piperazin-1-yl)-propenyl]-benzyl}-5,7-dimethyl-3H-imidazo[4,5-b]pyridine dihydrochloride]	261
